In assay [1] the target is T1, Human Vanilloid Receptor 1 (Homo sapiens, UniProt Q8NER1).
T1 construct: expressed in transfected cells; host or cells: HEK 293
As to the kind of experiment: Human VR1 functional assay using FLIPR, Protocol 1. In kind it is cell-based. Particulars: for inhibition at 9 µM: HEK293, 9 uM, HEK 293 cells transfected with hVR1, read-out: h % I (9 uM); for IC50: decreased capsaicin (EC80)-induced calcium response, HEK 293 hVR1, read-out: h IC50. The protocol:
The functional activity of the test compounds was determined by measuring changes in intracellular calcium concentration using FLIPR™ Calcium-3 Assay Kit and FLIPR™ technology.
HEK 293 cells transfected with Human Vanilloid Receptor 1 were maintained at 37° C. and 5% CO2 in: Dulbecco's Modification of Eagle's Medium (high glucose, L-glutamine, pyridoxine HCl, No sodium pyruvate), 10% FBS, 1× Penicillin-Streptomycin-Amphotericin B, 200 ug/mL zeocin. Approximately 24 hours prior to assay, 30,000 cells/well were plated onto a 384-well black clear bottom poly-D-lysine-coated assay plate with a well volume of 25 µL using Titertek Multidrop.
On the day of the assay, the medium was dumped and 50 μL 1× dye were loaded using Multidrop. Plates were incubated with dye at 37° C. for 30 minutes followed by 30 minutes incubation at room temperature. Then the plates were assayed by FLIPR™ with 2 additions: 12.5 μL test compound with 5 minutes data acquisition followed by 12.5 μL capsaicin at the EC80 concentration.
The EC50 values of test compounds were calculated based on a test compound-induced calcium response at the 5-minute time point. The IC50 values of compounds were calculated based on a decreased capsaicin-induced calcium response in the presence of test compound.

For a further assay, the target named is T2, hVR1 receptors (Homo sapiens, UniProt Q8NER1).
T2 construct: expressed in transfected cells; host or cells: HEK293
T2 sequence (Q8NER1 whole entry): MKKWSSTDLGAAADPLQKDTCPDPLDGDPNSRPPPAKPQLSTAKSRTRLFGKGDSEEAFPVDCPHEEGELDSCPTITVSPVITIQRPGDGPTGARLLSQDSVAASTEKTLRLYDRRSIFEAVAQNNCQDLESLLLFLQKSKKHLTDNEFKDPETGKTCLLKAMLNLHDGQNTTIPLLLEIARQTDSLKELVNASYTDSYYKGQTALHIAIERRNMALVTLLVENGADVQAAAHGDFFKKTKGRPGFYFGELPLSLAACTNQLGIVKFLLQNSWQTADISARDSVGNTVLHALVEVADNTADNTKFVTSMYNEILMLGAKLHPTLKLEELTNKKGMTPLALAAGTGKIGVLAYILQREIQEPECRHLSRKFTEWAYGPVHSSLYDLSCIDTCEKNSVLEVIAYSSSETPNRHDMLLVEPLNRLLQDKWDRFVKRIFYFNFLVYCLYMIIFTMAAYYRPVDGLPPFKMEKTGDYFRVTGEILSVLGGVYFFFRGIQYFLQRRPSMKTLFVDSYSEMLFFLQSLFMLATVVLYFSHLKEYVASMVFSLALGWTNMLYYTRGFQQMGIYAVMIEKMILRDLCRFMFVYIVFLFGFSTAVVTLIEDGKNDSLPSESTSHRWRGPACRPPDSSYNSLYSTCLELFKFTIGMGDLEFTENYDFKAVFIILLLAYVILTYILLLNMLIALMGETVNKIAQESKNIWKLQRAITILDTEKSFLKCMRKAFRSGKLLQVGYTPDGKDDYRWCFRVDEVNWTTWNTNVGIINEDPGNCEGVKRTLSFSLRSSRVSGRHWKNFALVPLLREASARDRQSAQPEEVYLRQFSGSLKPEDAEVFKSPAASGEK
In words: Human VR1 binding assay ([3H]RTX). Particulars: membranes of HEK293 cells transfected with human VR1; for h Binding % I (1 uM): inhibition of [3H]RTX binding; for Ki: [3H]RTX binding. The protocol:
Compounds of the present invention were tested for their ability to inhibit the binding of [^3H] RTX to hVR1 receptors in a [^3H] RTX binding assay as previously described (Zhang, Sui-Po. Improved ligand binding assays for vanilloid receptors. PCT Int. Appl. (2002), WO 0233411 A1 20020425 AN 2002:315209, and Grant, Elfrida R., Dubin, Adrienne E., Zhang, Sui-Po, Zivin, Robert A., Zhong, Zhong Simultaneous intracellular calcium and sodium flux imaging in human vanilloid receptor 1 (VR1)-transfected human embryonic kidney cells: a method to resolve ionic dependence of VR1-mediated cell death. J. Pharmacol. Exp. Ther., 2002, 300(1), 9-17.)
HEK293 cells were transfected with human VR1 vanilloid receptors and washed with Hank's balanced Salt Solution, dissociated with cell dissociation buffer (Sigma), and then centrifuged at 1000×g for 5 min. Cell pellets were homogenized in cold 20 mM HEPES buffer, pH 7.4, containing 5.8 mM NaCl, 320 mM sucrose, 2 mM MgCl2, 0.75 CaCl2 and 5 mM KCl and centrifuged at 1000×g for 15 min. The resultant supernate was then centrifuged at 40000×g for 15 min. The pelleted membranes were stored in a freezer at −80° C.
Approximately 120 μg protein/ml from membranes were incubated with indicated concentrations of [^3H]RTX in 0.5 ml of the HEPES buffer (pH 7.4) containing 0.25 mg/mL fatty acid-free bovine serum albumin at 37° C. for 60 min. The reaction mixture was then cooled to 4° C., added 0.1 mg α1-acid glycoprotein to each sample and incubated at 4° C. for 15 min. The samples were centrifuged at 18500×g for 15 min. The tip of the microcentrifuge tube containing the pellet was cut off. Bound radioactivity was quantified by scintillation counting. Non-specific binding was tested in the presence of 200 nM unlabeled RTX.
Data were calculated according to the equation: % inhibition=(total binding−binding)*100/(total binding−non specific binding). Ki values were calculated using a Prism program.

The mark [2] stands for this setting: inhibition of capsaicin (EC80)-induced calcium response.

The source of these data is patent US20060116368A1, “4-Piperidinecarboxamide modulators of vanilloid VR1 receptor” (priority 2004, published 2006).

T1 sequence (Q8NER1 whole entry): as above

A word on the IC50: it is the midpoint of a concentration-inhibition curve. For the compound `O=C(Nc1cnc2ccccc2c1)C1CCN(c2ccccc2Br)CC1` [Example 53, 1-(2-Bromo-phenyl)-piperidine-4-carboxylic acid quinolin-3-ylamide], the inhibition at 9 µM in assay [1] (setting [2]) stood at 104%. Moreover, the IC50 in assay [1] was 160 nM. Moreover, at hVR1 receptors, the “h Binding % I (1 uM)” value is recorded as 47.3%.

What is called Ki is a measure of affinity in units of concentration, obtained from inhibition or displacement. A high value points to weaker binding. On to `O=C(Nc1cccc2[nH]ccc12)C1CCN(c2cccc(C(F)(F)F)c2)CC1` [Example 21, 1-(3-Trifluoromethyl-phenyl)-piperidine-4-carboxylic acid (1H-indol-4-yl)-amide], for which the “h % I (9 uM)” value in assay [1] (9 uM, inhibition of capsaicin (EC80)-induced calcium response, HEK 293 cells transfected with hVR1) is on record as 102.0%. Besides, in assay [1], the IC50 was determined as 160 nM. Also, on hVR1 receptors, the “h Binding % I (1 uM)” value is reported as 86.9% and the Ki was determined as 134 nM.

In the case of `CC(=O)N1CCc2cccc(NC(=O)C3CCN(c4cccc(C(F)(F)F)c4)CC3)c21` [Example 9, 1-(3-Trifluoromethyl-phenyl)-piperidine-4-carboxylic acid (1-acetyl-2,3-dihydro-1H-indol-7-yl)-amide], the inhibition at 9 µM in assay [1] (setting [2]) is 48.5%. Moreover, the IC50 in assay [1] came out at 5610 nM. Also, the “h Binding % I (1 uM)” value at hVR1 receptors came out at 4.8%.

For the compound `O=C1COc2ccc(NC(=O)C3CCN(c4cccc(C(F)(F)F)c4)CC3)cc2N1` [Example 34, 1-(3-Trifluoromethyl-phenyl)-piperidine-4-carboxylic acid (3-oxo-3,4-dihydro-2H-benzo[1,4]oxazin-6-yl)-amide], the inhibition at 9 µM in assay [1] (setting [2]) was determined as 94.5%. Also, in assay [1], the IC50 was 210 nM. Further, the Ki on hVR1 receptors was found to be 65 nM.

With `CC(C)(C)c1ccc(N2CCC(C(=O)Nc3ccc4c(c3)NC(=O)CO4)CC2)cc1` [Example 146, 1-(4-tert-Butyl-phenyl)-piperidine-4-carboxylic acid (3-oxo-3,4-dihydro-2H-benzo[1,4]oxazin-6-yl)-amide], the inhibition at 9 µM in assay [1] (setting [2]) was determined as 112%. Besides, the IC50 in assay [1] was 90 nM. This compound came in with a Ki on hVR1 receptors of 132 nM.

Consider `Cc1ccc(N2CCC(C(=O)Nc3cnc4ccccc4c3)CC2)cc1C` [Example 6, 1-(3,4-Dimethyl-phenyl)-piperidine-4-carboxylic acid quinolin-3-ylamide], for which the inhibition at 9 µM in assay [1] (setting [2]) came to 92.2%. Moreover, in assay [1], the IC50 was 350 nM. Also, at hVR1 receptors, the “h Binding % I (1 uM)” value is 66.5% and the affinity, expressed as Ki, was 215 nM.

Consider `O=C(Nc1cccc2[nH]ccc12)C1CCN(c2cccc(C(F)(F)F)c2)CC1` [Example 8, 1-(3-Trifluoromethyl-phenyl)-piperidine-4-carboxylic acid (1H-indol-4-yl)-amide], for which the inhibition at 9 µM in assay [1] (setting [2]) was 101%. The IC50 in assay [1] was 230 nM. Besides, on hVR1 receptors, the “h Binding % I (1 uM)” value came out at 87.0% and the Ki came to 134 nM.

With `Cc1ccc(N2CCC(C(=O)Nc3ccc4c(c3)NC(=O)CO4)CC2)cc1C` [Example 144, 1-(3,4-Dimethyl-phenyl)-piperidine-4-carboxylic acid (3-oxo-3,4-dihydro-2H-benzo[1,4]oxazin-6-yl)-amide], the inhibition at 9 µM in assay [1] (setting [2]) was 77%. The IC50 in assay [1] is 380 nM. Besides, on hVR1 receptors, affinity was put at a Ki of 314 nM.

Regarding `O=C1COc2ccc(NC(=O)C3CCN(c4ccccc4Br)CC3)cc2N1` [Example 153, 1-(2-Bromo-phenyl)-piperidine-4-carboxylic acid (3-oxo-3,4-dihydro-2H-benzo[1,4]oxazin-6-yl)-amide], in assay [1] (setting [2]), the inhibition at 9 µM was 91.7%. In addition, in assay [1], the IC50 was determined as 160 nM. On hVR1 receptors, this compound gave a Ki of 71 nM.

For the compound `O=C1COc2ccc(NC(=O)C3CCN(c4ccccc4Cl)CC3)cc2N1` [Example 152, 1-(2-Chloro-phenyl)-piperidine-4-carboxylic acid (3-oxo-3,4-dihydro-2H-benzo[1,4]oxazin-6-yl)-amide], the inhibition at 9 µM in assay [1] (setting [2]) is 90.7%. Besides, the concentration for half-maximal inhibition (IC50) in assay [1] worked out at 220 nM. This compound displayed a Ki at hVR1 receptors of 93 nM.

Regarding `O=C1COc2ccc(NC(=O)C3CCN(c4cccc(Cl)c4)CC3)cc2N1` [Example 148, 1-(3-Chloro-phenyl)-piperidine-4-carboxylic acid (3-oxo-3,4-dihydro-2H-benzo[1,4]oxazin-6-yl)-amide], the inhibition at 9 µM in assay [1] (setting [2]) was 88.7%. Also, the IC50 in assay [1] was determined as 190 nM. On hVR1 receptors, this compound yielded a Ki of 34 nM.

On to `O=C1COc2ccc(NC(=O)C3CCN(c4ccccc4F)CC3)cc2N1` [Example 151, 1-(2-Fluoro-phenyl)-piperidine-4-carboxylic acid (3-oxo-3,4-dihydro-2H-benzo[1,4]oxazin-6-yl)-amide], for which, in assay [1] (setting [2]), the inhibition at 9 µM is 62.3%. Also, the concentration for half-maximal inhibition (IC50) in assay [1] turned out to be 670 nM. This compound came in with a Ki at hVR1 receptors of 1470 nM.

With `CC(=O)N1CCc2ccc(NC(=O)C3CCN(c4cccc(C(F)(F)F)c4)CC3)cc21` [Example 16, 1-(3-Trifluoromethyl-phenyl)-piperidine-4-carboxylic acid (1-acetyl-2,3-dihydro-1H-indol-6-yl)-amide], the inhibition at 9 µM in assay [1] (setting [2]) came to 83%. Moreover, the IC50 in assay [1] amounted to 800 nM. Further, the “h Binding % I (1 uM)” value at hVR1 receptors was determined as 15.0%.

Turning to `O=C1COc2ccc(NC(=O)C3CCN(c4cc(F)cc(F)c4)CC3)cc2N1` [Example 154, 1-(3,5-Difluoro-phenyl)-piperidine-4-carboxylic acid (3-oxo-3,4-dihydro-2H-benzo[1,4]oxazin-6-yl)-amide], the inhibition at 9 µM in assay [1] (setting [2]) was 96%. Also, in assay [1], the IC50 worked out at 370 nM. At hVR1 receptors, this compound had a Ki of 137 nM.

For `CCc1ccccc1N1CCC(C(=O)Nc2ccc3c(c2)NC(=O)CO3)CC1` [Example 142, 1-(2-Ethyl-phenyl)-piperidine-4-carboxylic acid (3-oxo-3,4-dihydro-2H-benzo[1,4]oxazin-6-yl)-amide], the inhibition at 9 µM in assay [1] (setting [2]) turned out to be 96.3%. Moreover, the IC50 in assay [1] amounted to 150 nM. Moreover, at hVR1 receptors, the Ki is 125 nM.

As to `O=C1COc2ccc(NC(=O)C3CCN(c4cccc(F)c4Br)CC3)cc2N1` [Example 160, 1-(2-Bromo-3-fluoro-phenyl)-piperidine-4-carboxylic acid (3-oxo-3,4-dihydro-2H-benzo[1,4]oxazin-6-yl)-amide], the inhibition at 9 µM in assay [1] (setting [2]) came out at 93%. In assay [1], the IC50 worked out at 130 nM.

In the case of `O=C(Nc1ccc2c(c1)OCCO2)C1CCN(c2cccc(C(F)(F)F)c2)CC1` [Example 18, 1-(3-Trifluoromethyl-phenyl)-piperidine-4-carboxylic acid (2,3-dihydro-benzo[1,4]dioxin-6-yl)-amide], the inhibition at 9 µM in assay [1] (setting [2]) amounted to 12.5%.

As for `CCn1cnc2c(NC(=O)C3CCN(c4cccc(C(F)(F)F)c4)CC3)ncnc21` [Example 7, 1-(3-Trifluoromethyl-phenyl)-piperidine-4-carboxylic acid (9-ethyl-9H-purin-6-yl)-amide], the inhibition at 9 µM in assay [1] (setting [2]) worked out at 5%.

As to `O=C(Nc1ccc2[nH]ccc2c1)C1CCN(c2cccc(C(F)(F)F)c2)CC1` [Example 22, 1-(3-Trifluoromethyl-phenyl)-piperidine-4-carboxylic acid (1H-indol-5-yl)-amide], the inhibition at 9 µM in assay [1] (setting [2]) worked out at 78%. Further, in assay [1], the IC50 was found to be 1070 nM.

On to `O=C1COc2ccc(NC(=O)C3CCN(c4cc(C(F)(F)F)ccc4C(F)(F)F)CC3)cc2N1` [Example 166, 1-(2,5-Bis-trifluoromethyl-phenyl)-piperidine-4-carboxylic acid (3-oxo-3,4-dihydro-2H-benzo[1,4]oxazin-6-yl)-amide], for which the inhibition at 9 µM in assay [1] (setting [2]) is 100%. Besides, the IC50 in assay [1] amounted to 290 nM.

For orientation: EC50 means the concentration giving half of the maximal effect. On to `O=C1Cc2cc(NC(=O)C3CCN(c4cccc(C(F)(F)F)c4)CC3)ccc2N1` [Example 17, 1-(3-Trifluoromethyl-phenyl)-piperidine-4-carboxylic acid (2-oxo-2,3-dihydro-1H-indol-5-yl)-amide], for which, in assay [1] (HEK293, 12.2 uM, test compound-induced calcium response (agonist mode), HEK 293 hVR1, read-out: % maximal reponse to capsaicin (12.2 uM)), the Emax at 12.2 µM is 49%. The EC50 in assay [1] (test compound-induced calcium response at the 5-minute time point, HEK 293 hVR1, read-out: h EC50) is 470 nM.
